Key:
[1] = molecular target: T1, hFASN enzyme (full length) (Homo sapiens, UniProt P49327); test: Fatty Acid Synthase (FASN) Inhibition Scintillation Proximity Assay; assay type: biochemical; conditions: for IC50: mean where tested more than once, ~ = standard error of pIC50 larger than 0.5; for inhibition at 10 µM: read-out: FASN % Effect @1E−05M
T1 construct: 10 μL hFASN enzyme (full length, 300 ng, purified in house); made in house
Outline: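 Purified full-length human FASN (300 ng) incubated 60 min at room temperature with NADPH, [3H]-acetyl-CoA and malonyl-CoA in 100 mM KH2PO4 pH 7.5, 1 mM DTT; compound at 30 μM to 0.01 μM. [3H]-palmitate captured by SPA imaging beads; IC50 from 4-parameter fit, reported as pIC50.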

[2] = tested on: A2780 ovarian cells; test: A2780 Ovarian Cell Proliferation Assay in Lipid Reduced Medium, with Palmitate (control); assay type: cell-based; conditions: Homo sapiens, A2780; lipid reduced medium, 25 μM palmitate, 96 h, MTT; read-out: Proliferation A2780 with Palmitate pIC50 (converted)
Outline: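 A2780 cells were seeded in RPMI1640 with 10% FCS, then switched next day to medium with 10% lipid-reduced serum. Compound was added with final 25 μM palmitate, 0.2% fatty-acid-free BSA and 0.2% DMSO, and incubated 96 h at 37 °C. Read-out was MTT absorbance at 544 nm; pIC50 = −log(IC50) from curve fit.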

[3] = tested on: A2780 ovarian cells; test: A2780 Ovarian Cell Proliferation Assay in Lipid Reduced Medium, without Palmitate; assay type: cell-based; conditions: Homo sapiens, A2780; lipid reduced medium, without palmitate, 96 h, MTT; read-out: Proliferation A2780 w/o Palmitate pIC50 (converted)
Outline: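 A2780 cells were seeded in 10% FCS medium and switched next day to 10% lipid-reduced serum without palmitate. Compounds at 0.01–30 μM were added with 0.2% DMSO, 0.2% fatty-acid-free BSA and 0.25% ethanol final. After 96 h, MTT absorbance at 544 nm was normalized to plate controls, and IC50/pIC50 came from a 4-parameter logistic fit.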

[4] = molecular target: T2, FASN Keto-reductase Domain (Homo sapiens, UniProt P49327); test: Fatty Acid Synthase Keto-Reductase Domain (FASN KR) Inhibition; assay type: biochemical; conditions: mean where tested more than once; read-out: FASN K-R Domain pIC50 (converted)
T2 construct: 10 μL hFASN enzyme (full length, 300 ng, purified in house) and 360 μM NADPH; made in house
T2 sequence (P49327 whole entry, the tested form may be a part): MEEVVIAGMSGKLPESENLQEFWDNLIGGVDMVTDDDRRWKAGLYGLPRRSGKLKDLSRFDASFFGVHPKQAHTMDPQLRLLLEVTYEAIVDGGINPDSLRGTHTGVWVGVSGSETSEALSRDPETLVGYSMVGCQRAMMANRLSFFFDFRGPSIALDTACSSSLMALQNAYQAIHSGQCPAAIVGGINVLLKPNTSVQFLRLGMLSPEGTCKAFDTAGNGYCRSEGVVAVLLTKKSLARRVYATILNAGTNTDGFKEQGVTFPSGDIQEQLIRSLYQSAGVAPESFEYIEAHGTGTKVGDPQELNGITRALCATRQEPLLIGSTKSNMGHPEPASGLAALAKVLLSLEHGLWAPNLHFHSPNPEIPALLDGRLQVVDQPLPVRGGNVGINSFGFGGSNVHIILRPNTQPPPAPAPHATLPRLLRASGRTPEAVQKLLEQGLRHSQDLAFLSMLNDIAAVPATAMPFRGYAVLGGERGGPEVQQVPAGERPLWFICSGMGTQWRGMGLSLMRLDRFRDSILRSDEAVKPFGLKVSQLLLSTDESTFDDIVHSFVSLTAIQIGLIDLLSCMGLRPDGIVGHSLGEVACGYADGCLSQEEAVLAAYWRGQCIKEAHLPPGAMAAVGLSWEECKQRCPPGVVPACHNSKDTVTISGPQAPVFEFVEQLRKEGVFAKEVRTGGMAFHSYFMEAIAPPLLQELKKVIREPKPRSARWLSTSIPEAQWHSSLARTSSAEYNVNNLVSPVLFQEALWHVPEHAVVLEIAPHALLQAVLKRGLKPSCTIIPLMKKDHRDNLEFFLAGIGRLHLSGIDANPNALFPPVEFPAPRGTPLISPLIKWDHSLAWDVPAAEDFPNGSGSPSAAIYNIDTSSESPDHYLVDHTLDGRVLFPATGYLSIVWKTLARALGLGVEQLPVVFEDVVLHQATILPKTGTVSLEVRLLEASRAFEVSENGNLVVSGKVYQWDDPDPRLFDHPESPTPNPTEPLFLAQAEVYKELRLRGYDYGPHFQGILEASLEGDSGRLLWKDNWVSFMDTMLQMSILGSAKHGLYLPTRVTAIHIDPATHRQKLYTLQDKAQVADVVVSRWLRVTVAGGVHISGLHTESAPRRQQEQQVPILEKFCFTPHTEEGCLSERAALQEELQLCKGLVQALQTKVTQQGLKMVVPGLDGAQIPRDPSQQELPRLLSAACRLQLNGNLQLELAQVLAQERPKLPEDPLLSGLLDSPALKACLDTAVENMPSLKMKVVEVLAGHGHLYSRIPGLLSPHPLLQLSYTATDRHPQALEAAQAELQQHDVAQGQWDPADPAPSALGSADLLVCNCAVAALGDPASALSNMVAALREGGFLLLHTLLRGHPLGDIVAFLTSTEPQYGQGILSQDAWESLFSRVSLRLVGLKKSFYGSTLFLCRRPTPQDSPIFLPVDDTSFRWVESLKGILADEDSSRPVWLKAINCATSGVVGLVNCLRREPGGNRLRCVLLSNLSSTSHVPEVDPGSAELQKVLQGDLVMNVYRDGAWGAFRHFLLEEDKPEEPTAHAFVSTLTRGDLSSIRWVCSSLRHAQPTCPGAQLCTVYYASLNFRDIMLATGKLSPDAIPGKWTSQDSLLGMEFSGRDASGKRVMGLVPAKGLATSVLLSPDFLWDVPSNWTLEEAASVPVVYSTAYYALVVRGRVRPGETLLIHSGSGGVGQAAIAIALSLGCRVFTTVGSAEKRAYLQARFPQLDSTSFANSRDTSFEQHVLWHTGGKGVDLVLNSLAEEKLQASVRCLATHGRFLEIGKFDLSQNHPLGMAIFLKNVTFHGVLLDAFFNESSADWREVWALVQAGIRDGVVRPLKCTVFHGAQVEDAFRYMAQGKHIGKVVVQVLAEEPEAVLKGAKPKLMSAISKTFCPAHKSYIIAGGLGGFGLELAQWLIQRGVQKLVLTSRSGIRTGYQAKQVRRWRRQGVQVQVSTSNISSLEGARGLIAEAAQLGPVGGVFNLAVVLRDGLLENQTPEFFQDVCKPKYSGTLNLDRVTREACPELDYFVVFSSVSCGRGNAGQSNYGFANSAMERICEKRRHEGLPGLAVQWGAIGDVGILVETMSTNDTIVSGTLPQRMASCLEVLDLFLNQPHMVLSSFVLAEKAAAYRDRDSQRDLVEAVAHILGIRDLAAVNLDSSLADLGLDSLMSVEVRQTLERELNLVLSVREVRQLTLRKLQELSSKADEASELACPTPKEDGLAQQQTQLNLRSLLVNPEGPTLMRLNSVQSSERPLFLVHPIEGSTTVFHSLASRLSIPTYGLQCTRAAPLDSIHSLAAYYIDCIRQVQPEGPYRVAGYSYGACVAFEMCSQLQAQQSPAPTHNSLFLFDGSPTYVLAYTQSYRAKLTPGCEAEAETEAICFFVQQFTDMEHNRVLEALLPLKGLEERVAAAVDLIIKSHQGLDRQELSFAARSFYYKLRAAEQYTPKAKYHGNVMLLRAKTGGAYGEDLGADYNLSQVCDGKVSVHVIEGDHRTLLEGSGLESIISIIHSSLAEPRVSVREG
Outline: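 Full-length human FASN (300 ng) in 100 mM KH2PO4 pH 7.5 with 360 μM NADPH and 180 mM ethyl acetoacetate (stock); A340 decrease read over 20 min at room temperature.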

T1 sequence (P49327 whole entry): as the sequence (P49327 whole entry, the tested form may be a part) above

Row | Compound | IC50 [1] | inhibition at 10 µM [1] | IC50 [2] | IC50 [3] | IC50 [4]
1 | Cc1ccc(C(=O)N2CC(c3ccc(-c4ccnn4C)cc3)C2)cc1NC(=O)c1ccc(N(C)C(C)C)nc1 [Compound 60, 6-(isopropyl(methyl)amino)-N-(2-methyl-5-(3-(4-(1-methyl-1H-pyrazol-5-yl)phenyl)azetidine-1-carbonyl)phenyl)nicotinamide] | 19.5 nM | 103% | 2.75 µM | 51.3 nM | 28.8 nM
2 | Cc1ccc(C(=O)N2CC(c3ccc(-c4cnn(C)c4)cc3)C2)cc1NC(=O)C1CCC1 [Compound 143, N-(2-methyl-5-(3-(4-(1-methyl-1H-pyrazol-4-yl)phenyl)azetidine-1-carbonyl)phenyl)cyclobutanecarboxamide] | 44.7 nM | 114% | > 10 µM | 302 nM | 170 nM
3 | Cc1ccc(C(=O)N2CC(c3ccc(-c4ccnn4C)cc3)C2)cc1NC(=O)c1cncc(Br)c1 [Compound 56, 5-bromo-N-(2-methyl-5-(3-(4-(1-methyl-1H-pyrazol-5-yl)phenyl)azetidine-1-carbonyl)phenyl)nicotinamide] | 309 nM | 95% | 0.912 µM | 437 nM | 457 nM
4 | Cc1ccc(C(=O)N2CC(c3ccc(-c4ccnn4C)cc3)C2)cc1NC(=O)c1ccc(N2CCN(C)CC2)nc1 [Compound 59, N-(2-methyl-5-(3-(4-(1-methyl-1H-pyrazol-5-yl)phenyl)azetidine-1-carbonyl)phenyl)-6-(4-methylpiperazin-1-yl)nicotinamide] | 56.2 nM | 103% | 7.24 µM | 93.3 nM | 115 nM
5 | Cc1ccc(C(=O)N2CCC(c3ccc(-c4cnn(C)c4)cc3)CC2)cc1NC(=O)[C@H]1CCCN1C [Compound 239, (R)-1-methyl-N-(2-methyl-5-(4-(4-(1-methyl-1H-pyrazol-4-yl)phenyl)piperidine-1-carbonyl)phenyl)pyrrolidine-2-carboxamide] | 123 nM | 110% | > 10 µM | 195 nM | 457 nM
6 | Cc1ccc(C(=O)N2CCC(c3ccc(-c4cnn(C)c4)cc3)CC2)cc1NC(=O)c1ccccc1F [Compound 117, 2-fluoro-N-(2-methyl-5-(4-(4-(1-methyl-1H-pyrazol-4-yl)phenyl)piperidine-1-carbonyl)phenyl)benzamide] | 33.1 nM | 99% | > 10 µM | 138 nM | 83.2 nM
7 | Cc1ccc(C(=O)N2CC(c3ccc(-c4ccncc4)cc3)C2)cc1NC(=O)c1ccc(Cl)nc1 [Compound 3, 6-chloro-N-(2-methyl-5-(3-(4-(pyridin-4-yl)phenyl)azetidine-1-carbonyl)phenyl)nicotinamide] | 25.7 nM | 106% | 5.25 µM | 138 nM | 64.6 nM

The remaining compounds from weak to strong by IC50 [1], led by results:

Row | IC50 [1] | inhibition at 10 µM [1] | IC50 [2] | IC50 [3] | IC50 [4] | Compound
8 | 166 nM | 107% | 9.55 µM | 275 nM | 282 nM | CCCCCN1CC(C(=O)Nc2cc(C(=O)N3CCC(c4ccc(-c5cnn(C)c5)cc4)CC3)ccc2C)C1 [Compound 214, N-(2-methyl-5-(4-(4-(1-methyl-1H-pyrazol-4-yl)phenyl)piperidine-1-carbonyl)phenyl)-1-pentylazetidine-3-carboxamide]
9 | 58.9 nM | 109% | > 10 µM | 87.1 nM | 219 nM | Cc1ccc(C(=O)N2CCC(c3ccc(-c4cnn(C)c4)cn3)CC2)cc1NC(=O)c1ccc(NC(C)C)nc1 [Compound 264, 6-(isopropylamino)-N-(2-methyl-5-(4-(5-(1-methyl-1H-pyrazol-4-yl)pyridin-2-yl)piperidine-1-carbonyl)phenyl)nicotinamide]
10 | 57.5 nM | 103% | 9.55 µM | 457 nM | 214 nM | Cc1ccc(C(=O)N2CCC(c3ccc(-c4cnn(C)c4)cc3)CC2)cc1NC(=O)c1sccc1C [Compound 149, 3-methyl-N-(2-methyl-5-(4-(4-(1-methyl-1H-pyrazol-4-yl)phenyl)piperidine-1-carbonyl)phenyl)thiophene-2-carboxamide]
11 | 47.9 nM | 105% | > 10 µM | 91.2 nM | 155 nM | Cc1ccc(C(=O)N2CCC(c3ccc(-c4cnn(C)c4)cc3)CC2)cc1NC(=O)c1cccnc1Cl [Compound 101, 2-Chloro-N-(2-methyl-5-(4-(4-(1-methyl-1H-pyrazol-4-yl)phenyl)piperidine-1-carbonyl)phenyl)nicotinamide]
12 | 39.8 nM | 110% | 2.63 µM | 513 nM | 251 nM | CC(C)Nc1ccc(C(=O)Nc2cc(C(=O)N3CCC(c4ccc(-c5ccncc5)cc4)CC3)ccc2Cl)cn1 [Compound 72, N-(2-chloro-5-(4-(4-(pyridin-4-yl)phenyl)piperidine-1-carbonyl)phenyl)-6-(isopropylamino)nicotinamide]
13 | 31.6 nM | 105% | > 10 µM | 10 nM | 74.1 nM | Cc1ccc(C(=O)N2CCC(c3ccc(-c4cnn(C)c4)cc3)CC2)cc1NC(=O)C1CCN(C2CCC2)CC1 [Compound 209, 1-cyclobutyl-N-(2-methyl-5-(4-(4-(1-methyl-1H-pyrazol-4-yl)phenyl)piperidine-1-carbonyl)phenyl)piperidine-4-carboxamide]
14 | 31.6 nM | 118% | 5.25 µM | 195 nM | 64.6 nM | CC(C)Nc1ccc(C(=O)Nc2cc(C(=O)N3CCC(c4ccc(-c5ccnc6ccccc56)cc4)CC3)ccc2Cl)cn1 [Compound 68, N-(2-chloro-5-(4-(4-(quinolin-4-yl)phenyl)piperidine-1-carbonyl)phenyl)-6-(isopropylamino)nicotinamide]
15 | 30.2 nM | 102% | 4.68 µM | 38 nM | 61.7 nM | CCC(CC)C(=O)Nc1cc(C(=O)N2CC(c3ccc(-c4cnn(C)c4)cc3)C2)ccc1C [Compound 153, 2-ethyl-N-(2-methyl-5-(3-(4-(1-methyl-1H-pyrazol-4-yl)phenyl)azetidine-1-carbonyl)phenyl)butanamide]
16 | 22.4 nM | 106% | > 10 µM | 182 nM | 75.9 nM | Cc1ccc(C(=O)N2CCC(c3ccc(-c4cnn(C)c4)cc3)CC2)cc1NC(=O)C1CCCCC1 [Compound 86, N-(2-methyl-5-(4-(4-(1-methyl-1H-pyrazol-4-yl)phenyl)piperidine-1-carbonyl)phenyl)cyclohexanecarboxamide]
17 | 16.2 nM | 109% | > 10 µM | 74.1 nM | 45.7 nM | COc1ccc(C(=O)Nc2cc(C(=O)N3CC(c4ccc(-c5cnn(C)c5)cc4)C3)ccc2C)cc1 [Compound #83, 4-methoxy-N-(2-methyl-5-(3-(4-(1-methyl-1H-pyrazol-4-yl)phenyl)azetidine-1-carbonyl)phenyl)benzamide]
